Data reported in US11160767B2, “4,4′-trans-dihydroxystilbene for use in treating cancer” (The George Washington University, a Congressionally …, priority 2017, dated 2021).

Assays:
[1] = test system: PANC-1; test: In vitro cytotoxicity (SRB assay), PANC-1; format: cell-based; settings: Homo sapiens, 72 hours
Method: (§1) Cell lines and cell culture. HCT116, U205, PANC-1, MDA-231 cell lines were purchased from the American Type Culture Collection (Rockville, Md., US). Cells were cultured in the DMEM medium (Lonza, Basel, Switzerland) containing 10% fetal bovine serum (Gibco, Grand Island, N.Y., US), 100 Units/ml penicillin, 100 Units/mL streptomycin, […] L-glutamine (Gibco, Grand Island, N.Y., US) at 37° C. in a humidified atmosphere with 5% CO2.
(§2) In vitro cytotoxicity assays. […] SRB assay (Vichai and Kirtikara, 2006) was performed and the absorbance at 510 nm was read with a plate reader. The proliferation rate was calculated according to the Manufacturer's instruction. The IC50 value for each compound was determined from dose-effect relationship using the CompuSyn software (version 1.0.1; CompuSyn, Inc, Paramus, N.J.) (Chou, 2006). Cell proliferating doubling time was monitored over a period of 72 hours.

[2] = test system: U2OS; test: In vitro cytotoxicity (SRB assay), U2OS; format: cell-based; settings: Homo sapiens, 72 hours
Method: as §1, §2

[3] = test system: HCT116; test: In vitro cytotoxicity (SRB assay), HCT116; format: cell-based; settings: Homo sapiens, HCT-116, 72 hours
Method: as §1, §2

[4] = test system: MDA-231/GFP; test: In vitro cytotoxicity (SRB assay), MDA-231/GFP; format: cell-based; settings: Homo sapiens, MDA-MB-231, 72 hours
Method: as §1, §2

[5] = test system: HCT116 cells, U2OS cells, MDA-231/GFP cells, and PANC-1 cells; test: Cytotoxicity across the four cancer cell lines (SAR summary); format: cell-based; settings: range over four cell lines
Method: In vitro cytotoxicity assays. Cells growing in the Log phase were treated with various compounds at different concentrations (generally 0.137 to 100 μM) for 72 hours at 37° C. SRB assay (Vichai and Kirtikara, 2006) was performed and the absorbance at 510 nm was read with a plate reader. The proliferation rate was calculated according to the Manufacturer's instruction. The IC50 value for each compound was determined from dose-effect relationship using the CompuSyn software (version 1.0.1; CompuSyn, Inc, Paramus, N.J.) (Chou, 2006). Cell proliferating doubling time was monitored over a period of 72 hours.
Based on identification of resveratrol as a lead compound in the drug screening assays, the anti-cancer activity of synthetic resveratrol analogs (FIG. 2) was next investigated and compared to resveratrol using HCT116 cells, U2OS cells, MDA-231/GFP cells, and PANC-1 cells.
The structure activity relationship (SAR) of the derivatives of resveratrol were considered.

[6] = test system: HCT116 cells; test: DNA fiber assay; format: cell-based, human; settings: added 2 hours prior to labeling
Method: Thus, the effect of DHS on DNA replication and cell cycle progression was investigated. Replication fork speeds were examined by DNA fiber assay (FIG. 7A). Briefly, DHS, hydroxyurea (Hu), or Aphidicolin (Aph) was added to HCT116 cells 2 hours prior to labeling of DNA with iododeoxyuridine (IdU) and/or chlorodeoxyuridine (CldU).

[7] = test system: HCT116 xenograft tumor; test: HCT116 xenograft tumor model; format: in vivo, nude mice; settings: Day 38; DHS 50 mg/kg i.p. 14 consecutive days; cisplatin 8 mg/kg i.p.
Method: Xenograft mouse models. […] In xenograft studies, HCT116 (3×10^6 cells) and IGROV3/CP2 (5×10^6 cells) suspended in 100 μl of phosphate buffered saline (PBS, pH 7.4) were injected subcutaneously into the lower flank of the mice. Testing compounds were dissolved in DMSO/Tween 80/saline (10:10:80; v/v/v) buffer and were used to treat animals through intraperitoneal (i.p.) injection. […] The body weight of animals was measured throughout the study. Tumor diameters were measured with digital calipers, and the tumor volume in mm^3 was calculated by the formula: Volume=(width)^2×length/2.
HCT116 cells (5×10^6) were injected subcutaneously in nude mice and grown to approximately 100 mm^3 in volume. […] To study the preclinical toxicity of DHS, samples of hearts, livers, spleens, lung, and kidneys were collected on Day 38 and sections were stained for histological examination.

[8] = target: T1, RRM1 (Homo sapiens, UniProt P23921); test: Thermal shift assay in HCT116 cells, RRM1; format: cell-based
T1 construct: endogenous in cells; host or cells: HCT116
Method: (§3) To investigate binding of DHS to RRM1 and RRM2, a thermal shift assay was performed in HCT116 cells treated with DMSO (vehicle), resveratrol, DHS, gemcitabine, or hydroxyurea (Hu). Gemcitabine is known to bind RRM1 (Plunkett et al., 1995 and Chen et al., 2011), and Hu has been reported to bind RRM2 (Thelander et al., 1985). […] DHS stabilized RRM2 protein in a dose responsive manner (5 to 20 μM DHS; FIG. 11A). To rule out nonspecific effects of DHS on RRM2, an in vitro thermal shift assay was conducted. Purified RRM1 and RRM2 were mixed and then incubated with DHS or Hu for 4 hours before performing the assay.

[9] = test system: HCT116 cells; test: dNTP amount in treated cells; format: cell-based, human
From the text: The effect of DHS on dNTP synthesis was investigated by measuring the amount of dNTPs in DHS-treated HCT116 cells.

[10] = target: T2, RRM2 (Homo sapiens, UniProt P31350); test: Thermal shift assay in HCT116 cells, RRM2; format: cell-based
T2 construct: endogenous in cells; host or cells: HCT116
T2 sequence (P31350 1-389): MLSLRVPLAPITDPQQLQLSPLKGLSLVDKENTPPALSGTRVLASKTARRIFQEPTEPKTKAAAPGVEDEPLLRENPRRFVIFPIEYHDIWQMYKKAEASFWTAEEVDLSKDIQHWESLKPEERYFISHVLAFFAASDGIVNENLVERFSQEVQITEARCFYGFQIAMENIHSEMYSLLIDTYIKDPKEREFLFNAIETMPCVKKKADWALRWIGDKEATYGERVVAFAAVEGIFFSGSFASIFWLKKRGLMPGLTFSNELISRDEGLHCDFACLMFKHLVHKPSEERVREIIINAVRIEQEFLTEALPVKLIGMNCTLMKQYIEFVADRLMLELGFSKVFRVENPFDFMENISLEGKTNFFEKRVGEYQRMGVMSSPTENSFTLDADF
Method: as §3

[11] = test system: And-1; test: High-throughput screening, HEK-293T-And-1-Luc cells; format: cell-based; settings: 48 hours
Method: High-throughput drug screening was performed using a HEK-293T-And-1-Luc cell line expressing Luciferase fused to And-1 (FIG. 1A). The level of cellular Luciferase activity was reflective of the level of And-1 protein. […] In the drug screening assays, cells were treated with testing drugs for 48 hours.

[12] = test system: HCT116 cells; test: Cell-cycle assay; format: cell-based, human; settings: 10 μM
Method: A cell-cycle assay was conducted to study whether DHS would affect cell-cycle progression.

T1 sequence (P23921 whole entry): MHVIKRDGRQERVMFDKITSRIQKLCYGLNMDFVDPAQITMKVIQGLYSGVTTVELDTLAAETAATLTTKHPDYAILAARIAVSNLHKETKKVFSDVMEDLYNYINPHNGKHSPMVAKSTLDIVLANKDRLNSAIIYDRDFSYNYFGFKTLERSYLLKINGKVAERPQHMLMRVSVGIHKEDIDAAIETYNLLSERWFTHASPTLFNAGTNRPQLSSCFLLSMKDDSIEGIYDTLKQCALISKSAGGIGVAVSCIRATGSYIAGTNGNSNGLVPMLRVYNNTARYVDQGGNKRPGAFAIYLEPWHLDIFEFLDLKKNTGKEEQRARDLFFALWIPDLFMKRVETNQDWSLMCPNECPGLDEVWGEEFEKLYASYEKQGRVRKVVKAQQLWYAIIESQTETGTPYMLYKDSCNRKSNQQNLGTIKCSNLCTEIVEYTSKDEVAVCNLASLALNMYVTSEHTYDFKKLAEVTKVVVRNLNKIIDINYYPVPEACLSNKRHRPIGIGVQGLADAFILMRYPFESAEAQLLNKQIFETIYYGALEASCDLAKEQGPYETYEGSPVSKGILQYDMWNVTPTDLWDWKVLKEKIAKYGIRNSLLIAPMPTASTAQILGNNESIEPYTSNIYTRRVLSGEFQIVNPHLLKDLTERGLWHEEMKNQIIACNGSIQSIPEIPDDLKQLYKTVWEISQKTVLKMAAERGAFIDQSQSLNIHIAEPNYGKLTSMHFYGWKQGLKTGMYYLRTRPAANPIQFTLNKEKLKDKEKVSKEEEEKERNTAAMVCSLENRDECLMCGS

| RRM1 levels in thermal shift assay (binding) [8] | RRM2 levels in thermal shift assay (binding) [10] | Structure (SMILES) | IC50 [1] [µM] | IC50 [2] [µM] | IC50 [3] [µM] | IC50 [4] [µM] | IC50 [5] [µM] | DNA replication stalling [6] | Reduction in tumor volume as compared with the vehicle control group [7] [%] | dNTP synthesis [9] | And-1 protein level (luciferase activity) [11] | Effect on cell-cycle progression [12] |
| --- | --- | --- | --- | --- | --- | --- | --- | --- | --- | --- | --- | --- |
| – | – | Oc1ccc(/C=C/C=C/c2ccc(O)cc2)cc1 [#1, 4,4′-((1E,3E)-buta-1,3-diene-1,4-diyl)diphenol] | 308 ± 86.3 | 1.1 ± 1.05 | 6.48 ± 3.98 | 70.7 ± 16.7 | – | – | – | – | – | – |
| – | – | Oc1ccc(/C=C/C=C/C=C/c2ccc(O)cc2)cc1 [#2, 4,4′-((1E,3E,5E)-hexa-1,3,5-triene-1,6-dyl)diphenol] | 123 ± 93.4 | 0.37 ± 0.28 | 11.7 ± 6.46 | 57.9 ± 15.4 | – | – | – | – | – | – |
| – | – | Oc1ccc(/C=C/c2ccccc2)cc1 [#3, (E)-4-styrylphenol] | 109 ± 63.7 | 23.6 ± 3.83 | 32.2 ± 5.88 | 45.1 ± 13.9 | 23.6 to 109 | – | – | – | – | – |
| – | – | Oc1ccc(/C=C/c2ccccc2)cc1O [#4, (E)-4-styrylbenzene-1,2-diol] | 57.1 ± 44.7 | 33.6 ± 28 | 50.2 ± 9.72 | 13.7 ± 2.98 | 13.7 to 57.1 | – | – | – | – | – |
| – | – | Oc1ccc(/C=C/C=C/c2ccccc2)cc1O [#5, 4-((1E,3E)-4-phenylbuta-1,3-dien-1-yl)benzene-1,2-diol] | 18.4 ± 8.87 | 4.66 ± 2.67 | 9.5 ± 3.64 | 5.47 ± 4.02 | – | – | – | – | – | – |
| – | – | C[C@@]1(CO)[C@H](O)CC[C@@]2(C)[C@H]1CC[C@H]1C[C@@H]3C[C@@]12CC[C@]3(O)CO [Aph, Aphidicolin, reference compound] | – | – | – | – | – | caused DNA replication stalling | – | – | – | – |
| – | – | N.N.[Cl][Pt][Cl] [Cisplatin, reference compound] | – | – | – | – | – | – | ~50 | – | – | – |
| robust levels of RRM1 | – | Nc1ccn([C@@H]2O[C@H](CO)[C@@H](O)C2(F)F)c(=O)n1 [Gemcitabine, reference compound] | 7.43 ± 5.24 | 0.51 ± 0.17 | 0.046 ± 0.041 | 0.03 ± 0.04 | – | – | – | – | – | – |
| – | robust levels of RRM2 | NC(=O)NO [Hydroxyurea, reference compound] | 2400 ± 485 | 262 ± 181 | 306 ± 61.1 | 704 | – | caused DNA replication stalling | – | did not | – | – |
| – | – | Oc1ccc(/C=C/c2cc(O)cc(O)c2)cc1 [Resveratrol, 3,5,4′-trihydroxy-trans-stilbene, reference compound] | 82 ± 24.4 | 30.2 ± 4.22 | 24.5 ± 3.32 | 42.4 ± 4.9 | 24.5 to 82 | – | – | did not | causing down-regulation of And-1 protein | did not change the cell-cycle population |
